Patent US20080268439A1, “ASSAY SYSTEMS AND METHODS FOR DETECTING MOLECULES THAT INTERACT WITH SK2 CHANNELS” (priority 2007, published 2008)

Tests used:
[1] = target: intermediate conductance Ca^2+-activated K^+ channels (Homo sapiens, UniProt O15554); conditions: cited from earlier work
[2] = target: T1, hSK2A^+ expressed in mammalian tsA201 cells (Homo sapiens, UniProt Q9H2S1, DUP58-58); experiment: Membrane potential sensitive dye fluorescence (FLIPR) assay in tsA201 cells stably expressing SK2; assay type: cell-based; conditions: FIG. 9; for Hill coefficient (nH): inhibition of ATP/Tg induced decrease in fluorescence
T1 construct: other: 100 nM to 1 mM added online; normalized to maximum fluorescence a; Hill coefficient (nH); hSK2A^+ was 1743 nucleotides in length and encoded a polypeptide of 580 amino acids
T1 sequence (Q9H2S1 with tags, fused parts or gaps DUP58-58): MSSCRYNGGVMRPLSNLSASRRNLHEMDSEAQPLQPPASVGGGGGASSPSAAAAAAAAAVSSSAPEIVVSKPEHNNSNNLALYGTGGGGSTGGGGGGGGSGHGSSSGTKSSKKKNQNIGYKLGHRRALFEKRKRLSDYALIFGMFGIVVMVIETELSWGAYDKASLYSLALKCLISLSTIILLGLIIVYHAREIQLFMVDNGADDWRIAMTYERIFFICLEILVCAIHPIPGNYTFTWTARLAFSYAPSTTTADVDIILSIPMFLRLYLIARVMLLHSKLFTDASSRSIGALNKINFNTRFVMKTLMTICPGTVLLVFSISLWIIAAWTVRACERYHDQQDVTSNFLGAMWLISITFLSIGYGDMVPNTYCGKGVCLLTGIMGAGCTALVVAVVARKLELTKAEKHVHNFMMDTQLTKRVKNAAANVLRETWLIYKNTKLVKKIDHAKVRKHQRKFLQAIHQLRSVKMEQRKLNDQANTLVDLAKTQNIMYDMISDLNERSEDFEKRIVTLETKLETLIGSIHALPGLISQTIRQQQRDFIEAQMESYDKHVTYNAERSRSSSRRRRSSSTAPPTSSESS
Description: (§1) These cells were plated in a black optical bottom 384 well assay plate at a density of 8×10^6 cells/plate. […] After a 30-minute incubation in the voltage sensitive dye, the cell plate was transferred to a fluorescence plate reader (FLIPR384™, Molecular Devices), and ten baseline fluorescence readings were obtained.
(§2) In FIG. 8, time is represented in seconds on the X-axis, and fluorescence is represented in au on the Y-axis. ATP/Tg addition is indicated at time I, and CsCl addition is indicated at time II.
(§3) The magnitude of the ATP/Tg induced decrease in fluorescence was measured in the presence of each of a panel of known SK2 inhibitors. […]

[3] = tested on: hSK2A^+ expressed in mammalian tsA201 cells; experiment: as above; assay type: cell-based, human; conditions: 10 minutes incubation
Description: as §1, §2, §3

intermediate conductance Ca^2+-activated K^+ channels, sequence (O15554 whole entry): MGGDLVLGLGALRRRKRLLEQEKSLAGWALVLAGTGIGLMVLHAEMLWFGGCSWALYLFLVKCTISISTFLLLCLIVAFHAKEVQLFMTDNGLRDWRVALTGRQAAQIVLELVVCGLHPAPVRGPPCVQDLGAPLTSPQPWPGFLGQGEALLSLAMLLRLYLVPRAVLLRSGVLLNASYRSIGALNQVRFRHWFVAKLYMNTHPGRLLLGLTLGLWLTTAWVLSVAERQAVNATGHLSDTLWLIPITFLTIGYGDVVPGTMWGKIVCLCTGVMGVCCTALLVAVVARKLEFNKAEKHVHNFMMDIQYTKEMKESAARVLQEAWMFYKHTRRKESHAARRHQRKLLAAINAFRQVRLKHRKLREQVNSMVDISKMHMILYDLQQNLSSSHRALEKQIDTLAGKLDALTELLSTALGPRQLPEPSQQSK

| Compound | binding affinity of the inhibitors tested (rank order) [2] | effect on the fluorescence signals (responses to ATP/Tg and Cs+) ([3]; tested at 833 nM) | also measured |
| --- | --- | --- | --- |
| CCn1c(=O)[nH]c2ccccc21 [1-EBIO, 1-ethyl-2-benzimidazolinone] | – | – | effect on intermediate conductance Ca2+-activated K+ channels [1]: enhance activity |
| O=c1[nH]c2cc(C(F)(F)F)ccc2n1-c1cc(C(F)(F)F)ccc1O [NS1619] | apamin>scyllatoxin>NS1619>quinidine>bicuculline | – | – |
| C[N+]1(C)CCc2cc3c(cc2[C@H]1[C@@H]1OC(=O)c2c1ccc1c2OCO1)OCO3.[Br-] [bicuculline methobromide] | apamin>scyllatoxin>NS1619>quinidine>bicuculline | – | Hill coefficient (nH) [2]: 1 |
| Nc1cc(N2CCCCC2)nc(N)[n+]1[O-] [minoxidil] | – | – | effect on the fluorescence signals (responses to ATP/Tg and Cs+) ([3]; tested at 1.43 μM): no effect |
| CC(N/C(=N\C#N)Nc1ccncc1)C(C)(C)C (centres unmarked) [pinacidil] | – | – | effect on the fluorescence signals (responses to ATP/Tg and Cs+) ([3]; tested at 286 μM): no effect |
| C=C[C@H]1C[N@@]2CC[C@H]1C[C@@H]2[C@@H](O)c1ccnc2ccc(OC)cc12 [quinidine] | apamin>scyllatoxin>NS1619>quinidine>bicuculline | – | Hill coefficient (nH) [2]: 0.6 |
| iberiotoxin: inhibitor of the IK channel; isolated from Mesobuthus taniulus (QFTDVDCSVSKECWSVCKDLFGVDRGKCMGKKCRCYQ) | – | no effect | – |
| noxiustoxin: inhibitor of Ca2+- and voltage activated channels (TIINVKCTSPKQCSKPCKELYGSSAGAKCMNGKCKCYNN) | – | no effect | – |
| α-dendrotoxin (QPRRKLCILHRNPGRCYDKIPAFYYNQKKKQCERFDWSGCGGNSNRFKTIEECRRTCIG) | – | no effect | – |
